The values that follow come from patent US20230381348A1, “BIFUNCTIONAL MACROCYCLIC CHELATE, CONJUGATE, METAL COMPLEX AND USE THEREOF” (Jyams Pet Research & Development Limited, priority 2021, published 2023).

Data set [1] is classed as physicochemical. As to conditions: 48 h. On the procedure:
(§1) HPLC: standard UV peak Rt=10.548 min, radioactive peak Rt=10.809 min, corresponding to the peak position of the standard.

Data set [2] can be described thus: In vitro stability of labeled product in mouse serum (radiochemical purity after 48 h). The format is in vitro ADME. On the procedure: as §1
Another data set has as its system LNCap tumor-bearing mice. Briefly: PET imaging after tail vein injection. The data set is classed as in vivo. The settings on record: single intravenous administration, 200 μCi. On the procedure: Method: LNCap tumor-bearing mice were injected with the complex ^89Zr-Dar-PSMA-617 (200 μCi) prepared in Example 9 through tail vein, while dynamic scan was performed for 60 min during the administration, and static whole body scan was performed for 10 min at different time points during 2-216 h after the administration. Refer to FIG. 1 for the mouse PET scanning image.
Method: LNCap tumor-bearing mice were injected with the complex (200 μCi) prepared in Example 7 through tail vein, dynamic scan was performed for 60 min during the administration, and the static whole body scan was performed for 10 min at different time points of 2-192 h after the administration. Refer to FIG. 2 for the mouse PET scanning image.
Method: LNCap tumor-bearing mice were injected with the complex ^68Ga-Dar-PSMA-617 (200 μCi) prepared in Example 10 through tail vein, dynamic scan was performed for 60 min during the administration, and the static whole body scan was performed for 10 min at different time points of 2-6 h after the administration. Refer to FIG. 3 for the mouse PET scanning image.

The conditions of data set [3]: male, SD, rat, in vivo, iv.
Method: About 0.1-0.2 mL of blood was collected from jugular vein plexus of the experimental animals at 5 min, 15 min, 30 min, 1 h, 2 h, 3 h, 4 h, 5 h, 6 h, 8 h, 12 h, 24 h, 48 h, 72 h, 96 h, 120 h, 144 h, and 168 h after the administration, and the rats were weighed for subsequent assay. Blood was collected from 6 males in each group at each time point, and 12 animals were cross-sampled. Each sample was subjected to gamma counting for 30 s.
In data set [4] the test system is LNCap cells. Kind of data set: Experiment A cell uptake experiment (cell binding rate). The format is cell-based. The settings on record: for uptake rate of the blocking group: unlabeled ligand 200 times that of labeled subject; for uptake rate: 37° C. As to the method: (§2) LNCap cells were cultured to logarithmic growth phase. After digestion with pancreatin, the resultant mixture was adjusted with complete medium into a cell suspension with a cell density of […]. Cells were inoculated in 24-well plate with 0.5-1.0 mL cells per well and the number of 1×10^5 cells per well (inoculated 2 d in advance for cell experiment). ^177Lu-Dar, ^177Lu-Dar-PSMA-617, ^177Lu-DOTA, and ^177Lu-DOTA-PSMA-617 were respectively diluted with a basic medium (with 1% HSA added) to 10 μCi/mL for subsequent use.
Unlabeled ligands Dar, DOTA, Dar-PSMA-617, and DOTA-PSMA-617 were respectively formulated to be 10 μg/mL and 25 μg/mL with basic medium (with 1% HSA added) for subsequent use.
(§3) Cells were incubated in 37° C. incubator for 1 h, 4 h, and 24 h.
Uptake experiment: blocking groups were set in cell uptake experiment, and unlabeled ligands were added in an amount of 200 times that of labeled subjects. After incubation was completed, the cell suspension was collected, followed by centrifugation at 1500 rpm for 5 min, cell pellet was collected, the supernatant was removed, the cell pellet was washed once with 0.5 mL of pre-cooled PBS, and the resultant cell pellet was collected.
(§4) Cell pellet was collected for gamma counting. Both the blank and standard tubes were assayed simultaneously in each test.
Cell binding rate=CPM of the cell lysate/CPM of the standard tube×100%

The test system of data set [5] is LNCap cells. Briefly: Experiment A internalization experiment. The data set is classed as cell-based. On the procedure:
as §2, §3
Internalization experiment: after incubation was completed, the cell suspension was collected, 0.5 mL of pre-cooled pickling solution was added, after incubation for 1 min at room temperature, the pickling solution was removed; and the resultant mixture was washed once with 0.5 mL of PBS, and cell pellet was collected.
as §4
Cell internalization rate=CPM of the cell lysate after acid pickling/CPM of the uptake experiment cell lysate×100%

In data set [6] the test system is LNCap cells. Briefly: Experiment A efflux experiment. The format is cell-based. As to conditions: then 24 h in complete medium. On the procedure:
as §2, §3
Efflux experiment: after the incubation was completed, the cell suspension was collected, washed once with 0.5 mL of complete medium, added with 0.5 mL of complete medium, after resuspension, the resultant mixture was placed into original wells, incubated at 37° C. for 24 h, and then the supernatant was collected, and washed once with 0.5 mL of PBS. Cell pellet was collected after centrifugation of the supernatant and PBS washing solution; and 0.5 mL of 1 M lysis solution was utilized to digest and lyse cells in the original wells, and combined with the cell pellet.
as §4
Cell efflux rate=CPM of the efflux experiment cell lysate/CPM of the uptake experiment cell lysate×100%

The subject of data set [7] is LNCap tumor-bearing mice animal models. Kind of data set: ^177Lu-Dar-PSMA-617 treatment study (tumor size, body weight, clinical observation). The format is in vivo. On the procedure: LNCap tumor-bearing mice animal models were used.
Experimental Groups: • (A)^177Lu-Dar-PSMA-617 low dosage 0.25 mCi (n=7); • (B)^177Lu-Dar-PSMA-617 medium dosage 0.5 mCi (n=10); • (C)^177Lu-Dar-PSMA-617 high dosage 1 mCi (n=10).
Positive Control Groups: • (D)^177Lu-DOTA-PSMA-617 0.5 mCi (n=7); • (E)^177Lu-DOTA-PSMA-617 1 mCi (n=10).
Negative Control Groups: • (F) ^177LuCl3 1 mCi (n=10); • (G) normal saline (n=10)
Method: the day of administration was recorded as D-0, and body weight and tumor size were measured every day or every other day. After administration of ^177Lu-Dar-PSMA-617 (Group C), SPECT scan was performed at 4 h, 24 h, 72 h, 120 h, and 240 h after the administration; the control groups ^177Lu-DOTA-PSMA-617 (Group E) and ^177LuCl3 (Group F) were respectively subjected to SPECT scan at 2 h, 24 h, 72 h, and 120 h (240 h) (refer to FIG. 7, group C, group E, and group F in sequence from top to bottom). The animals were kept stationary, and CT scan was completed before/after the SPECT scan. Prior to the scan, the animals were subjected to respiratory anesthesia with isoflurane through an anesthesia machine, and the animals having undergone anesthesia induction were placed on a SPECT/CT bed. During the scan, the animals continuously inhaled isoflurane to maintain anesthesia effect. Each bed was statically scanned for 10-30 min and scan time was recorded.

Data set [8] concerns MC38/MC38-hPDL1 bilateral tumor-bearing mice. Briefly: ^89Zr-Dar-KN035 PET imaging study. The data set is classed as in vivo. On the procedure: Method: MC38/MC38-hPDL1 bilateral tumor-bearing mice were injected with the ^89Zr-Dar-KN035 (100 μCi) through tail vein, wherein MC38 was a tumor low-expressing PDL1, and MC38-hPDL1 was a tumor high-expressing PDL1. Dynamic scan was performed for 60 min during the administration, and static whole body scan was performed for 10 min at different time points of 1-168 h after the administration. A mouse PET scanning image is shown in FIG. 10, with MC38 on the left and MC38-hPDL1 on the right.

As to `Cc1cc2c(O)c(c1)CN(CC(=O)O)Cc1cccc(n1)CN(CC(=O)NC[C@H]1CC[C@H](C(=O)N[C@@H](Cc3ccc4ccccc4c3)C(=O)NCCCC[C@H](NC(=O)N[C@@H](CCC(=O)O)C(=O)O)C(=O)O)CC1)Cc1cc(C)cc(c1O)CN(CC(=O)O)Cc1cccc(n1)CN(CC(=O)O)C2` [^89Zr-Dar-PSMA-617, metal not drawn], the “radiochemical purity after incubation in normal saline” value in data set [1] (normal saline, 37° C. water bath incubator) came out at 98%. Further, the “radiochemical purity after being placed at room temperature” value in [1] (room temperature) is recorded as 98%. In addition, the “radiochemical purity after incubation in mouse serum” value in data set [2] was determined as 96%. The “main distribution of radioactive substances” value with LNCap tumor-bearing mice is “mainly distributed in the bladder and kidneys”. Further, in [3], the “half-life period in blood” value worked out at 4.57 h.
With `O=C([O-])CN1CCN(CC(=O)[O-])CCN(CC(=O)[O-])CCN(CC(=O)[O-])CC1.[177Lu+3].[H+]` [^177Lu-DOTA], the “uptake rate of the blocking group” value in the data set with LNCap cells [4] (1 h) came out at 0.26%; in the data set on LNCap cells [4] (4 h), 0.24%; in the data set with LNCap cells [4] (24 h), 1.97%. Moreover, the figures for the uptake rate with LNCap cells [4] (1 h incubation), with LNCap cells [4] (4 h incubation) and in the data set with LNCap cells [4] (24 h incubation) were 0.22%, 0.20% and 2.01%, respectively. Further, the internalization rate in the data set on LNCap cells [5] (1 h incubation) was 35.46%; in the data set on LNCap cells [5] (4 h incubation), 165.46%; with LNCap cells [5] (24 h incubation), 8.33%. Also, the efflux rate with LNCap cells [6] (1 h incubation) is on record as 76.83%; in the data set with LNCap cells [6] (4 h incubation) it was 63.22%; in the data set on LNCap cells [6] (24 h incubation) it was 9.38%.
Regarding `[177Lu+3].[Cl-].[Cl-].[Cl-]` [^177LuCl3], the body weight change result in data set [7] (1 mCi (Group C, Group F)) was “decrease rapidly”. Besides, in data set [7] (1 mCi (Group F)), the “adverse effects (conclusion)” value is on record as “severe adverse effects”; the “gross anatomy of dead mice” value is “skeletal darkening and blood stasis of bone marrow”. The animal clinical observation entry in data set [7] (1 mCi (Group F), starting from D-5, all animals at the later stage) was “weight loss and arched back”.

B1: ^89Zr-Dar-KN035 (conjugate, chains of the INN, looked up)
VH: QVQLVESGGGLVQPGGSLRLSCAASGKMSSRRCMAWFRQAPGKERERVAKLLTTSGSTYLADSVKGRFTISRDNSKNTVYLQMNSLRAEDTAVYYCAADSFEDPTCTLVTSSGAFQYWGQGTLVTVSS
modifications: 89Zr with Dar chelator
For the molecule B1, in data set [8] (100 μCi tail vein, PET 1-168 h), the “uptake in tumor high-expressing PDL1 (MC38-hPDL1)” value was “significantly taken up” and the “uptake in tumor low-expressing PDL1 (MC38)” value is reported as “almost not taken up”. In data set [8] (MC38-hPDL1 versus MC38), the tumor selectivity result is recorded as “good tumor selectivity”.
